The test system of test [1] is RNAIII transcription. Description: RNAIII transcription activation/inhibition assay (Ji et al. 1995), strain RN6607. As to conditions: purified peptide; S. aureus strain RN6607; Figure 3. It counts as cell-based. The method, then:
(§1) The purified activator peptide was then analyzed for its ability activate and inhibit RNAIII transcription of S. aureus strains RN6390B, RN6607 and RN8463, as described in Ji, G., et al. PNAS USA 92:12055-12059 (1995).
(§2) The purified peptide were then analyzed for their ability activate and inhibit RNAIII transcription of S. aureus strains RN6390B, RN6607 and RN8463, as described in Ji, G., et al. PNAS USA 92:12055-12059 (1995).

Test [2] deals with RNAIII transcription. Briefly: RNAIII transcription activation/inhibition assay (Ji et al. 1995), strain RN8463. As to conditions: purified peptide; S. aureus strain RN8463; Figure 3. In kind it is cell-based. The method, then:
as §1, §2

For test [3], the system named is RNAIII transcription. Description: RNAIII transcription activation/inhibition assay (Ji et al. 1995), strain RN6390B. As to conditions: purified peptide; S. aureus strain RN6390B; Figure 3. In kind it is cell-based. On the procedure: as §1, §2
Test [4] concerns agr locus. As to conditions: PNAS 92:12055-12059 (1995); cited from earlier work.
Test [5] concerns RNAIII transcription. Description: Effect of S. lugdunensis pheromone on RNAIII transcription of various S. aureus strains (Northern blot). As to conditions: 37°C for 30 minutes; strains grown to 60 Klett units for inhibition assays; Figures 4A and 4B. In kind it is cell-based. The method, then: The purified S. lugdunensis pheromone was then analyzed for its ability activate and inhibit RNAIII transcription of various S. aureus strains. S. aureus strains were grown to 30 Klett units (for activation assays) and to 60 Klett units (for inhibition assays). The purified S . lugdunensis pheromone was added and the mixtures were incubated at 37°C for 30 minutes. Whole cell lysates were prepared from these cultures and analyzed by Northern blot hybridization using a RN6390B RNAIII-specific probe.

Where a SMILES comes first, the peptide text is derived from it. Bridges are numbered along the chain shown (N, C = ends).

For the compound `CC[C@H](C)[C@H](NC(=O)[C@@H](N)Cc1ccc(O)cc1)C(=O)N[C@@H](CC(N)=O)C(=O)N[C@H]1CSC(=O)[C@H](CC(C)C)NC(=O)[C@H](CC(C)C)NC(=O)[C@H](Cc2ccccc2)NC(=O)[C@H](CC(=O)O)NC1=O` [peptide from RN8463, Tyr-Ile-Asn-Cys-Asp-Phe-Leu-Leu] (H-YINCDFLL; thioester 4-C), the “effect on RNAIII transcription” value in test [1] is recorded as “inhibitor effect”; in test [2] it was “activator effect”; in test [3] it was “inhibitor effect”.

In the case of `CC(C)C[C@@H]1NC(=O)[C@H](CO)NC(=O)[C@H](CO)NC(=O)[C@@H](NC(=O)[C@H](C)NC(=O)[C@H](CC(N)=O)NC(=O)[C@@H](NC(=O)CN)C(C)C)CSC(=O)[C@H](Cc2ccccc2)NC1=O` [peptide from RN6607, Gly-Val-Asn-Ala-Cys-Ser-Ser-Leu-Phe] (H-GVNACSSLF; thioester 5-C), the “effect on RNAIII transcription” value in test [1] was “activator effect”; in test [2], “inhibitor effect”; in test [3] it was “inhibitor effect”.

Take `CC[C@H](C)[C@@H]1NC(=O)[C@H](Cc2ccccc2)NC(=O)[C@H](CC(=O)O)NC(=O)[C@@H](NC(=O)[C@@H](NC(=O)[C@H](CO)NC(=O)[C@@H](N)Cc2ccc(O)cc2)[C@@H](C)O)CSC(=O)[C@H](CCSC)NC1=O` [activator peptide, Tyr-Ser-Thr-Cys-Asp-Phe-Ile-Met] (H-YSTCDFIM; thioester 4-C): the results for the “effect on RNAIII transcription” value in test [1], in test [2] and in test [3] were “inhibitor effect”, “inhibitor effect” and “activator effect”, respectively. Also, the “expression of the agr locus” value in test [4] is reported as “activate”.

`CC[C@H](C)[C@H](NC(=O)[C@@H](N)CC(=O)O)C(=O)N[C@H]1CSC(=O)[C@H](Cc2ccccc2)NC(=O)[C@H](Cc2ccc(O)cc2)NC(=O)[C@H](C)NC(=O)[C@H](CC(N)=O)NC1=O` [S. lugdunensis pheromone, Asp-Ile-Cys-Asn-Ala-Tyr-Phe] (H-DICNAYF; thioester 3-C): the “S. aureus strains tested in which the agr response is inhibited” value in test [5] is reported as 5 of 6.

The record behind these values is patent publication EP0932613B1, “BLOCKING EXPRESSION OF VIRULENCE FACTORS IN S. AUREUS” (NEW YORK UNIVERSITY, priority 1996, dated 2005).
